Laboratory results: the NIST ThermoML archive (doi:10.1016/j.jct.2019.07.011)
Numbers after ± are expanded uncertainties.

Experiment: xn = mol fraction of the nth substance listed
Conditions: Gas, Frequency=0.002 MHz, Spherical resonator

[He] [helium] + C
Conditions | speed of sound [m/s]
273.16 K, 491.07 kPa, x2 = 0.8999 | 449.8 ± 0.74
273.16 K, 495.33 kPa, x2 = 0.95 | 438.87 ± 0.72
273.16 K, 993.4 kPa, x2 = 0.8999 | 448.5 ± 0.73
273.16 K, 1010.2 kPa, x2 = 0.95 | 437.11 ± 0.72
273.16 K, 1705.3 kPa, x2 = 0.8999 | 446.82 ± 0.73
273.16 K, 2010.6 kPa, x2 = 0.95 | 433.9 ± 0.71
273.16 K, 2484.9 kPa, x2 = 0.8999 | 445.25 ± 0.73
273.16 K, 2988.8 kPa, x2 = 0.95 | 431.21 ± 0.71
273.16 K, 3490.4 kPa, x2 = 0.8999 | 443.67 ± 0.73
273.16 K, 4423.3 kPa, x2 = 0.95 | 428.28 ± 0.7
273.16 K, 4498.4 kPa, x2 = 0.8999 | 442.69 ± 0.72
273.16 K, 5505.7 kPa, x2 = 0.8999 | 442.38 ± 0.72
273.16 K, 5984.1 kPa, x2 = 0.95 | 426.79 ± 0.7
273.16 K, 6475.9 kPa, x2 = 0.95 | 426.75 ± 0.7
273.16 K, 6493 kPa, x2 = 0.8999 | 442.8 ± 0.72
273.16 K, 6972.4 kPa, x2 = 0.95 | 426.96 ± 0.7
273.16 K, 7508.1 kPa, x2 = 0.8999 | 444.07 ± 0.73
273.16 K, 7524.3 kPa, x2 = 0.95 | 427.48 ± 0.7
273.16 K, 8481.6 kPa, x2 = 0.8999 | 446.2 ± 0.73
273.16 K, 8589.5 kPa, x2 = 0.95 | 429.44 ± 0.7
273.16 K, 9521.1 kPa, x2 = 0.8999 | 449.34 ± 0.73
273.16 K, 9523.8 kPa, x2 = 0.95 | 432.26 ± 0.71
273.16 K, 10522 kPa, x2 = 0.8999 | 453.42 ± 0.74
273.16 K, 10523 kPa, x2 = 0.95 | 436.5 ± 0.72
273.16 K, 11506 kPa, x2 = 0.95 | 441.94 ± 0.72
273.16 K, 11530 kPa, x2 = 0.8999 | 458.54 ± 0.75
273.16 K, 12532 kPa, x2 = 0.95 | 449.01 ± 0.73
273.16 K, 12638 kPa, x2 = 0.8999 | 465.33 ± 0.76
273.16 K, 13317 kPa, x2 = 0.95 | 455.32 ± 0.74
273.16 K, 13633 kPa, x2 = 0.8999 | 472.45 ± 0.77
273.16 K, 14040 kPa, x2 = 0.95 | 461.81 ± 0.75
273.16 K, 14537 kPa, x2 = 0.8999 | 479.7 ± 0.78
273.16 K, 14722 kPa, x2 = 0.95 | 468.48 ± 0.77
273.16 K, 15299 kPa, x2 = 0.95 | 474.53 ± 0.77
273.16 K, 15351 kPa, x2 = 0.8999 | 486.78 ± 0.79
273.16 K, 15853 kPa, x2 = 0.95 | 480.65 ± 0.78
273.16 K, 16041 kPa, x2 = 0.8999 | 493.25 ± 0.8
273.16 K, 16516 kPa, x2 = 0.95 | 488.34 ± 0.8
273.16 K, 16537 kPa, x2 = 0.8999 | 498.12 ± 0.81
273.16 K, 17032 kPa, x2 = 0.95 | 494.58 ± 0.81
273.16 K, 17048 kPa, x2 = 0.8999 | 503.31 ± 0.82
273.16 K, 17533 kPa, x2 = 0.95 | 500.83 ± 0.81
273.16 K, 17548 kPa, x2 = 0.8999 | 508.55 ± 0.83
273.16 K, 18009 kPa, x2 = 0.95 | 506.92 ± 0.82
273.16 K, 18059 kPa, x2 = 0.8999 | 514.05 ± 0.83
273.16 K, 18537 kPa, x2 = 0.8999 | 519.32 ± 0.84
273.16 K, 18552 kPa, x2 = 0.95 | 514.01 ± 0.83
273.16 K, 19088 kPa, x2 = 0.95 | 521.16 ± 0.85
273.16 K, 19117 kPa, x2 = 0.8999 | 525.88 ± 0.85
273.16 K, 19871 kPa, x2 = 0.95 | 531.76 ± 0.86
300 K, 482.33 kPa, x2 = 0.8999 | 469.85 ± 0.77
300 K, 483.64 kPa, x2 = 0.95 | 458.75 ± 0.75
300 K, 985.69 kPa, x2 = 0.95 | 457.69 ± 0.75
300 K, 1001 kPa, x2 = 0.8999 | 469.18 ± 0.77
300 K, 1985.5 kPa, x2 = 0.8999 | 468.06 ± 0.76
300 K, 1996 kPa, x2 = 0.95 | 455.8 ± 0.74
300 K, 2984.6 kPa, x2 = 0.8999 | 467.34 ± 0.76
300 K, 3212.7 kPa, x2 = 0.95 | 454.1 ± 0.74
300 K, 4475.2 kPa, x2 = 0.95 | 453.09 ± 0.74
300 K, 4487.3 kPa, x2 = 0.8999 | 467.1 ± 0.76
300 K, 5490.1 kPa, x2 = 0.8999 | 467.58 ± 0.76
300 K, 5513.3 kPa, x2 = 0.95 | 452.95 ± 0.74
300 K, 6460.8 kPa, x2 = 0.95 | 453.38 ± 0.74
300 K, 6494.8 kPa, x2 = 0.8999 | 468.59 ± 0.77
300 K, 7011.9 kPa, x2 = 0.95 | 453.9 ± 0.74
300 K, 7501.4 kPa, x2 = 0.8999 | 470.2 ± 0.77
300 K, 7543 kPa, x2 = 0.95 | 454.6 ± 0.74
300 K, 8430.8 kPa, x2 = 0.95 | 456.23 ± 0.75
300 K, 9026.4 kPa, x2 = 0.8999 | 473.76 ± 0.77
300 K, 9344.2 kPa, x2 = 0.95 | 458.51 ± 0.75
300 K, 10504 kPa, x2 = 0.8999 | 478.72 ± 0.78
300 K, 10534 kPa, x2 = 0.95 | 462.72 ± 0.76
300 K, 11500 kPa, x2 = 0.95 | 466.77 ± 0.76
300 K, 11505 kPa, x2 = 0.8999 | 482.86 ± 0.79
300 K, 12492 kPa, x2 = 0.8999 | 487.56 ± 0.79
300 K, 12507 kPa, x2 = 0.95 | 471.79 ± 0.77
300 K, 13305 kPa, x2 = 0.95 | 476.35 ± 0.78
300 K, 13505 kPa, x2 = 0.8999 | 493.08 ± 0.8
300 K, 13998 kPa, x2 = 0.95 | 480.72 ± 0.78
300 K, 14495 kPa, x2 = 0.8999 | 499.05 ± 0.81
300 K, 14699 kPa, x2 = 0.95 | 485.51 ± 0.79
300 K, 15302 kPa, x2 = 0.95 | 489.92 ± 0.8
300 K, 15515 kPa, x2 = 0.8999 | 505.8 ± 0.82
300 K, 15902 kPa, x2 = 0.95 | 494.56 ± 0.81
300 K, 16490 kPa, x2 = 0.8999 | 512.81 ± 0.83
300 K, 16491 kPa, x2 = 0.95 | 499.36 ± 0.81
300 K, 16994 kPa, x2 = 0.8999 | 516.63 ± 0.84
300 K, 17005 kPa, x2 = 0.95 | 503.74 ± 0.82
300 K, 17511 kPa, x2 = 0.8999 | 520.69 ± 0.85
300 K, 17525 kPa, x2 = 0.95 | 508.33 ± 0.83
300 K, 18012 kPa, x2 = 0.8999 | 524.75 ± 0.85
300 K, 18013 kPa, x2 = 0.95 | 512.78 ± 0.83
300 K, 18515 kPa, x2 = 0.95 | 517.49 ± 0.84
300 K, 18523 kPa, x2 = 0.8999 | 529 ± 0.86
300 K, 19011 kPa, x2 = 0.95 | 522.29 ± 0.85
300 K, 19043 kPa, x2 = 0.8999 | 533.45 ± 0.86
300 K, 19447 kPa, x2 = 0.95 | 526.6 ± 0.85
300 K, 19955 kPa, x2 = 0.8999 | 541.5 ± 0.88
325 K, 473.9 kPa, x2 = 0.8999 | 487 ± 0.79
325 K, 479.57 kPa, x2 = 0.95 | 476.04 ± 0.78
325 K, 976.85 kPa, x2 = 0.8999 | 486.84 ± 0.79
325 K, 979.32 kPa, x2 = 0.95 | 475.45 ± 0.78
325 K, 1477.5 kPa, x2 = 0.8999 | 486.66 ± 0.79
325 K, 1677.4 kPa, x2 = 0.95 | 474.76 ± 0.77
325 K, 2455.5 kPa, x2 = 0.95 | 474.19 ± 0.77
325 K, 2481.6 kPa, x2 = 0.8999 | 486.49 ± 0.79
325 K, 3481.4 kPa, x2 = 0.95 | 473.83 ± 0.77
325 K, 3486.4 kPa, x2 = 0.8999 | 486.7 ± 0.79
325 K, 4485.5 kPa, x2 = 0.8999 | 487.28 ± 0.79
325 K, 4486.1 kPa, x2 = 0.95 | 473.85 ± 0.77
325 K, 5487.2 kPa, x2 = 0.8999 | 488.28 ± 0.8
